row,SMILES,melting point [°C]
1,Cc1onc(-c2c(F)cccc2Cl)c1C(N)=S,176
2,O=C(O)C1CCCNC1 (stereo unspecified),246 to 253
3,COc1cc2cc(c1Cl)N(C)C(=O)CC(OC(=O)C(C)N(C)C(C)=O)C1(C)OC1C(C)C1CC(O)(NC(=O)O1)C(OC)C=CC=C(C)C2 (stereo unspecified),172
4,CS(=O)(=O)c1ccc(O)cc1,93
5,COc1cc(C(N)=O)cc(OC)c1OC,179
6,CC(=O)c1ccc2c(c1)OCCO2,83
7,CC(C)c1cccc(O)c1O,47
8,Nc1nnc(-c2ccccc2)c(Nc2ccc(Cl)cc2Cl)n1,222 to 223
9,O=C(O)c1csc(-c2cccc(Cl)c2)n1,206 to 207
10,O=c1cc(C(F)(F)F)c2cc3c4c(c2o1)CCCN4CCC3,167 to 168
11,CC(C)S(=O)(=O)O,-37
12,Cc1cccc2cc3ccccc3cc12,85.5
13,O=C(O)CCc1ccc(C(=O)O)cc1,290
14,CCOC(=O)c1cc(-c2ccco2)n(C)n1,63 to 64
15,Clc1ccc(C(Cn2ccnc2)OCc2csc3c(Cl)cccc23)c(Cl)c1 (stereo unspecified),146
16,CCN(CCO)CCCC(C)Nc1ccnc2cc(Cl)ccc12 (stereo unspecified),90
17,N#Cc1c(-c2ccccc2)c2c(=O)[nH]n(-c3ccccc3)c2[nH]c1=S,142
18,FC(F)(F)c1nn(CN2CCOCC2)c(=S)n1/N=C/c1ccc2c(c1)OCO2,183
19,CCOc1ccc2ccc(=O)oc2c1,90
20,CCc1nn(CCCN2CCN(c3cccc(Cl)c3)CC2)c(=O)n1CCOc1ccccc1,83.5
21,CC(C)C12CCC(C)(CC1)O2,1
22,CCN(CC)CCNc1ccc(CO)c2sc3ccccc3c(=O)c12,101
23,CCCCCCCCCCCCCCCCCN,49
24,CC(=O)Oc1cc(C)ccc1C1(C)CC(C)(C)c2ccc(C)cc2O1 (stereo unspecified),102
25,CC(C)(C)c1ccc(C2CCC3(CC2)Cc2ccc(C(=O)n4cc(CCCC(=O)O)c5ccccc54)cc2C3)cc1 (stereo unspecified),120 to 150
26,Nc1cc(Cl)c(Cl)cc1[N+](=O)[O-],181

row,SMILES,melting point [°C]
1,CCOC(=O)Cc1c(C(=O)OCC)[nH]c(C)c1C(=O)OCc1ccccc1,110 to 112
2,CCOC(=O)c1c(N)sc(C)c1-c1ccccc1,92 to 93
3,CC(=O)C1CC1,-68.3
4,O=C(O)C12CC3CC(C1)CC(C(F)(F)C(F)C(F)(F)F)(C3)C2 (stereo unspecified),115 to 117
5,Cn1c(S)nnc1CC#N,188 to 190
6,CC(=O)CC(O)C(Cl)(Cl)Cl (stereo unspecified),75 to 76
7,CC1CCC(C(C)C)C(OC(=O)C(=O)C=Cc2ccccc2)C1 (stereo unspecified),45.5
8,NCCCNCCCN,-14
9,CC(=O)OC1(C(C)=O)CCC2C3CC(C)C4=CC(=O)C=CC4(C)C3(F)C(O)CC21C (stereo unspecified),298
10,O=[N+]([O-])c1nc[nH]n1,212 to 214
11,COc1cc(OC)c2cc(C(=O)c3cccc4ccccc34)c(=O)oc2c1,210
12,COc1ccc(C)cc1S(=O)(=O)Cl,82 to 84
13,O=C(c1ccc(F)cc1)C1CC1,-15
14,CSC(SC)=C(C#N)C#N,82 to 84
15,COc1cc(C=Nn2c(C)cc(C)c(C#N)c2=O)ccc1O,259 to 260
16,O=C(NCCCCCCO)OCC1c2ccccc2-c2ccccc21,119 to 120
17,NC(=S)C1COc2ccccc2O1 (stereo unspecified),180 to 183
18,FC(F)(F)c1cc(C=Cc2noc(CCl)n2)cc(C(F)(F)F)c1,106 to 108
19,CC(C)(C)OC(=O)N1CCC2(CC1)NC(=O)c1cc(Br)ccc1O2,226 to 227
20,CC(=O)OC1C(c2ccc(=O)oc2)C2(C)CCC3C(CCC4(O)CC(O)CCC34C)C23OC13 (stereo unspecified),260
21,O=C(OCC(O)CO)c1ccccc1Nc1ccnc2c(C(F)(F)F)cccc12 (stereo unspecified),180
22,CC(C)(c1ccccc1)C(C)(C)c1ccccc1,90 to 110
23,COc1ccc(OCc2ccccc2)cc1,71 to 73
24,O=S1(=O)Cc2ccccc2C1,151 to 152
25,Cc1cccc(C)c1NC(=O)C(C)Br (stereo unspecified),163 to 165
26,Nc1c(F)cc(O)cc1F,149

row,SMILES,melting point [°C]
1,Cc1cc(C(=O)NNCc2ccccc2)no1,106
2,CCN(CC)C(N)=O,66 to 71
3,CC1OC(n2ccc(NC(=O)c3ccc(NC(=O)C(C)(N)CO)cc3)nc2=O)CCC1OC1OC(C)C(N(C)C)C(O)C1O (stereo unspecified),167
4,CC(=O)Nc1ccc(C(F)(F)F)cc1Cl,136
5,CC(=Nc1ccc(N=Nc2ccccc2)cc1)c1c(O)c2ccccc2n(-c2ccccc2)c1=O,191
6,O=C(C=Cc1ccc(-c2ccc(Cl)cc2)o1)c1ccccc1,128 to 129
7,Nc1ccc2[nH]ccc2c1,132
8,BrCC(CBr)CBr,-32
9,NC(CCS(=O)(=O)O)C(=O)O (racemic),273
10,FC(F)(F)C(F)(F)C(F)(F)C(F)(F)C(F)(F)C(F)(F)F,-4
11,O=c1on(-c2ccccc2)c(Br)c1-c1ccccc1,165 to 166
12,Nc1[nH]c(=O)[nH]c(=O)c1N=O,280
13,COc1ccc(C2=CCC3(C)C(CCC4C3CCC3(C)C(OC(C)=O)CCC43)C2)cc1 (stereo unspecified),177 to 180
14,Cc1ccc(C(=O)c2cc3c(cc2Br)OCCO3)cc1,110 to 112
15,CCCCC(N)P(=O)(O)O (stereo unspecified),267 to 269
16,O=C(O)C1OC(O)C(O)C(O)C1O (stereo unspecified),158 to 162
17,COC(=O)c1ccc(C=CC(=O)c2ccccc2)cc1,119 to 120
18,O=C(O)CCCCCCCCCCCCC1C=CCC1 (stereo unspecified),68.5
19,C=CC1CN2CCC1CC2c1[nH]c2ccccc2c1CCO (stereo unspecified),186
20,CC(=O)Nc1ccc(N)cc1C,141 to 142
21,CCCCCC(O)c1ccc(O)c(O)c1 (stereo unspecified),109
22,Cc1ccc(-c2cc(N/N=C(/C(=O)c3cccs3)C(=O)C(F)(F)F)[nH]n2)cc1,220
23,CCCCCCCCNCCCCCCCC,35.5
24,Cc1ccccc1C(=O)Cc1ccccc1C(=O)O,138
25,O=C(O)CC1CCCCC1,33
26,NCc1ccc2occc2c1,32 to 34

row,SMILES,melting point [°C]
1,O=c1[nH]oc2ccccc12,139
2,CCCCCCOc1ccc(O)cc1,46
3,Cc1c(C)c2ccccc2c2ccccc12,144
4,c1ccc2c(Oc3cccc4ccccc34)cccc2c1,110
5,O=C(O)c1cc(F)c(F)cc1Cl,106
6,Cn1ccc(-c2cccc(C(=O)O)c2)n1,167 to 169
7,COC(=O)Cc1ccc(OCc2ccccc2)cc1,53 to 58
8,COC(OC)(OC)OC,-5
9,COC(=O)c1scc(S(=O)(=O)C(C)C)c1N,139 to 143
10,N#CC1(N2CCCCC2)CCN(Cc2ccccc2)CC1,103 to 106
11,Sc1nnc(-c2ccc(Cl)cc2Cl)n1Cc1ccco1,158 to 160
12,C=CC(=C)Cl,-130
13,O=[N+]([O-])c1ccc(C2Nn3c(COc4ccccc4)nnc3S2)cc1 (stereo unspecified),184
14,COc1ccc(C(=O)O)cc1I,240
15,Nc1ccncc1Br,67 to 71
16,COc1cc2c(cc1OC)[C@@H](C(=O)c1ccc3c(c1OC)C=CC(C)(C)O3)CCO2,118
17,NC(=O)c1cccnc1Sc1ccc(Cl)cc1,209 to 211
18,CC(=O)Nc1ccccc1/C=C/c1cc(C)c([N+](=O)[O-])cc1[N+](=O)[O-],252
19,O=c1ccn(C2OC(CO)C(O)C2O)c(=O)[nH]1 (stereo unspecified),168
20,Cc1ccccc1N(C)C,-60
21,O=[N+]([O-])c1cc([N+](=O)[O-])c(C(Br)C(Br)c2ccccc2)cc1/C=C\c1ccccc1 (stereo unspecified),212
22,Nc1ccc(Br)cc1N,62 to 64
23,CCC(O)(COC(N)=O)c1ccccc1 (stereo unspecified),55
24,c1ccc2c(c1)cc1ccc3c4ccccc4cc4ccc2c1c43,317
25,c1ccc2c(c1)c1cccc3c4c5ccccc5c5cccc(c2c13)c54,305
26,CC1=C(C(=O)OCc2ccccc2)C(c2ccc3ccccc3c2)NC(=O)N1C (stereo unspecified),150

row,SMILES,melting point [°C]
1,CCCCCCC(O)C1C2=C(CC(C(O)C3CC=CC(=O)O3)CC3=C(C(=O)OC3=O)C1O)C(O)OC2=O (stereo unspecified),214
2,CN(C)c1ccccc1N(C)C,8.9
3,Brc1cnc2ccccn12,93
4,COc1c2c(cc3oc(=O)ccc13)OC(C)(C)C=C2,133
5,Nc1ccc(Cl)cc1C(=O)O,209 to 213
6,COc1cc(CCC(C)=NO)ccc1O,82 to 84
7,Nc1nc(-c2ccc(Br)cc2)cc(C(F)(F)F)n1,216 to 218
8,CC(CS)C(=O)N1CCCC1C(=O)O (stereo unspecified),106
9,CC(C)(C)OC(=O)NCCC(=O)O,75
10,CCOC(=O)c1cc2c(=O)oc3ccccc3c2[nH]c1=O,313 to 315
11,Cc1ccc(C(C)(C)C(=O)ON)cc1,119
12,N#Cc1ccc([N+](=O)[O-])cc1Cl,83 to 84
13,Nc1cc(Cl)c([N+](=O)[O-])cc1N,189 to 193
14,N#C/C(=C\c1ccccc1Cl)c1nc(-c2cccs2)cs1,102
15,OCCCCCCCCl,11
16,CN(C)CCc1c[nH]c2cccc(O)c12,174
17,Nc1ccc(C2=NNC(=O)CC2)cc1,242 to 244
18,O=C(O)CCc1ccccc1F,76 to 78
19,NNC(=O)COc1ccccc1CSc1ccc(Cl)cc1,118 to 121
20,C(=CC=Cc1ccccc1)C=Cc1ccccc1,199 to 203
21,O=C(O)c1cc(F)c(F)c(O)c1F,143 to 147
22,Cc1cc(CCl)nn1C,63 to 66
